# Patent publication US20140030808A1, “Method for Cellular RNA Expression” (BIONTECH AG, priority 2010, published 2014)
# What was measured:
# [1] = tested on: Primary human foreskin fibroblasts (CCD1079SK); test: Induction of type-I interferon transcripts (qRT-PCR) after IVT RNA electroporation; format: cell-based; conditions: 2 μM C13H8N4OS
# Method: Primary human foreskin fibroblasts (CCD1079SK) were electroporated with 1 μg IVT RNA encoding for firefly luciferase and 5 μg IVT RNA encoding for destabilized GFP (luc+GFP). The cells were either left untreated or incubated with 2 μM C13H8N4OS (PKR-inhibitor). Upregulation of interferon-alpha and interferon-betatranscripts in human fibroblasts induced by RNA electroporation was observed (FIGS. 1A and 1C).
# (§1) Total cellular RNA was extracted from cells with RNeasy Mini Kit or RNeasy Micro Kit (Qiagen, Hilden, Germany), reverse transcribed with oligo-dT18 using Superscript II (Invitrogen, Carlsbad, Calif., USA), and subjected to real-time quantitative analysis on ABI PRISM 7700 Sequence Detection System instrument and software (Applied Biosystems, Foster City, Calif., USA) using the QuantiTect SYBR Green PCR Kit (Qiagen). Reactions were performed in triplicates with primer amplifying a specific region of the codon optimized
# Primary human foreskin fibroblasts (CCD1079SK) were electroporated with 1 μg IVT RNA encoding for firefly luciferase and 5 μg IVT RNA encoding for destabilized GFP (luc+GFP). Electroporations were performed in 2 mm gap cuvettes using optimized parameters. The cells were plated in 6-well-plates at a density of 300000 cells/well and either left untreated or incubated with 2 μM C13H8N4OS (PKR-inhibitor). 24 h later cells were harvested for total RNA extraction and reverse transcription. The induction of type-I interferons was assessed by qRT-PCR using specific primer for IFNα or IFNβ in the presence or absence of PKR-inhibitor as indicated in FIG. 1. Panels A and C show the same samples as B and D with reduced values of the y-axis.
# [2] = tested on: Primary human foreskin fibroblasts (BJ, CCD1079Sk); test: GFP expression by flow cytometry (MFI) in fibroblasts electroporated with IVT RNA; format: cell-based
# Method: (§2) (AB) Primary human foreskin fibroblasts from different donors and suppliers (panel A: BJ fibroblasts; panel B CCD1079Sk) and (C) MEFs were electroporated with 0.5 μg IVT RNA encoding for firefly luciferase and 1.25 μg IVT RNA encoding for enhanced GFP (eGFP). The cells were plated into […] at a density of 250000 cells/well. The cells were either left untreated or incubated with increasing amounts of C13H8N4OS (PKR-inhibitor) ranging from 0.5 μM to 2 μM as indicated in the panel legends. GFP expression was measured by flow cytometry at the indicated time points. The mean fluorescence intensity (MFI) of the transfected GFP-positive cell fractions is shown.
# (§3) Transfer of IVT-RNA into cells was performed by electroporation (EP). […]
# (§4) For quantification of d2eGFP and eGFP protein, cells were washed in PBS, fixed using PBS supplemented with 2% formaldehyde and analyzed by flow cytometry on a FACS Canto II flow cytometer (BD Biosciences, Heidelberg, Germany). Gating was performed on living cells and mean fluorescence intensity (MFI) of GFP expressing cell populations was quantified using FlowJo software (Tree Star, Ashland, Oreg., USA). […] Gating was performed on living CD4+ and CD8+ T-cells and GFP expression and MFI of both T-cell subpopulations was determined by flow cytometry. […]
# MEFs = test: GFP expression by flow cytometry (MFI) in murine fibroblasts electroporated with IVT RNA; format: cell-based; conditions: 0.5 μM to 2 μM, mouse fibroblasts
# Method: as §2, §3, §4
# [3] = tested on: Primary human umbilical vein endothelial cells (HUVECs); format: cell-based
# [4] = tested on: immature dendritic cells (iDCs); format: cell-based, human; conditions: 0.5 μM to 2 μM
# CCD1079SK fibroblasts = test: Induction of pluripotency marker genes (qRT-PCR); format: cell-based, human; conditions: 2 μM, 72 h after electroporation
# Method: CCD1079SK fibroblasts were either mock electroporated or electroporated with IVT RNA encoding for firefly luciferase (1 μg), eGFP (1.25 μg), SV40 Large T (1.25 μg), HPV16-E6 (1.25 μg), OCT4, SOX2, KLF4, cMYC, NANOG and LIN28 (2.5 μg OCT4 and equimolar amounts for the others). Electroporations were performed in 2 mm gap cuvettes using optimized parameters for CCDs. The cells were plated into 6-well-plates at a density of 250000 cells/well and either left untreated or incubated with 2 μM C13H8N4OS as indicated. […] GDF3 and hTERT induction was increased by the treatment 72 h after electroporation.
# as §1
# A direct consequence of reprogramming transcription factor expression is the induction of pluripotency marker genes at the transcriptional level. […]
smiles,measurement,setting,value
"O=C1Nc2ccc3ncsc3c2/C1=C/c1c[nH]cn1 [C13H8N4OS, 6,8-dihydro-8-(1H-imidazol-5-ylmethylene)-7H-pyrrolo[2,3-g]benzothiazol-7-one]",IFN-α transcript induction,"[1]; 24 h, with or without RNA",induced even in the absence of RNA
same,IFN-β transcript induction,"[1]; 24 h, with or without RNA",only in the presence of RNA
same,"interferon transcripts (IFNα, IFNβ; qRT-PCR)","[1]; 24 h after electroporation with luc+GFP IVT RNA, vs untreated",overwhelming increase
same,GFP expression (MFI),"[2]; 0.5 μM to 2 μM, human fibroblasts",dose dependent increase
same,stabilization of GFP expression,[2]; highest concentration used (2 μM),high level of stabilization
same,GFP expression (MFI),MEFs,dose dependent increase
same,luciferase expression,"[3]; 0.5 μM to 2 μM, HUVECs",enhanced in HUVECs in a dose dependent manner
same,luciferase expression on additional application of inhibitor,"[3]; HUVECs cotransfected with E3 and K3, increasing concentrations of C13H8N4OS",additively enhanced
same,duration of luciferase expression compared with fibroblasts,"[3]; HUVECs, PKR inhibition",not as long lasting as observed in fibroblasts
same,luciferase expression,[4],loss of luciferase expression
same,GDF3 induction (qRT-PCR),CCD1079SK fibroblasts,increased
same,hTERT induction (qRT-PCR),CCD1079SK fibroblasts,increased
